Results on 22 molecules are retold here after patent US20100204203A1, “Chemical Compounds 637: Pyridopyrimidinediones as PDE4 Inhibitors” (priority 2007, published 2010).

Where a name gives a salt, the structure may show the parent alone.

This assay addresses recombinant Human Phosphodiesterase B2 (PDE4B2) (Homo sapiens, UniProt Q07343). In words: Human Phosphodiesterase B2 Radiometric Assay (yttrium silicate SPA beads, [3H]cyclic AMP). The class given is biochemical. The conditions noted are these: recombinant human PDE4B2, radiometric SPA assay, 8 nM [3H]cyclic AMP; read-out: PDE4B2 pIC50 (converted). As for the experimental part: Human Phosphodiesterase B2 Radiometric Assay
The assay uses recombinant Human Phosphodiesterase B2 (PDE4B2) produced in house (PrAZL0163), stored at −20° C. This assay is based on the observation that 5′AMP, the product of the reaction catalysed by PDE4, binds preferentially to yttrium silicate SPA beads (Amersham Biosciences, UK) compared to the substrate, cAMP. Compounds at the appropriate concentration were preincubated at 30 C for 30 min with an assay buffer containing 50 mM HEPES (pH 7.5), 8.3 mM MgCl2, 1.7 mM EGTA, 0.01% (w/v) Brij° 35 and 0.1 mg/mL recombinant PDE4B2. The reaction was started by the addition of [3H]cyclic AMP to give a final concentration of 8 nM, and was stopped 20 minutes after the addition of the substrate by the addition of yttrium silicate SPA beads containing 18 mM Zn SO4. Bound [3H]cyclic AMP was measured using a Topcount NXT (Packard Bioscience, UK). pIC50 values (presented in Table 15) were determined using Xlfit3 curve fitting, using model 205.

recombinant Human Phosphodiesterase B2 (PDE4B2), sequence (Q07343 1-564 isoform Q07343-2): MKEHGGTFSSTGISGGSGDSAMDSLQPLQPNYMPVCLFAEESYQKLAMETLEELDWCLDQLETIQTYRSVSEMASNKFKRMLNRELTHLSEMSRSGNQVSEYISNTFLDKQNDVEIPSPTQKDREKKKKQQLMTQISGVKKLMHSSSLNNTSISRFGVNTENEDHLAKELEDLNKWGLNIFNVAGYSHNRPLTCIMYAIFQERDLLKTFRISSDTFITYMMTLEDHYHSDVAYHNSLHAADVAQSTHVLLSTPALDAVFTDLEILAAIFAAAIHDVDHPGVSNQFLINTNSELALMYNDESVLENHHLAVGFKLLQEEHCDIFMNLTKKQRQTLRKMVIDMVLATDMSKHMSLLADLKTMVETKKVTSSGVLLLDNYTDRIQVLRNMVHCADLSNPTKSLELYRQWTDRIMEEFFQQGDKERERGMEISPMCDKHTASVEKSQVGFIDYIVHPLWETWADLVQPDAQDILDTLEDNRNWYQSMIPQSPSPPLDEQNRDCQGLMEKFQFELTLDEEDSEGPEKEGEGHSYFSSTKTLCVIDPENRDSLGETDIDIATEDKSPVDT

For the molecule `O=C(N[C@H]1CC[C@@H](n2c(=O)c3cc(F)cnc3n(-c3cccc(-c4ccccc4CN4CCOCC4)c3)c2=O)CC1)C1(O)CC1` [Example 48, N-{cis-4-[6-fluoro-1-[2′-(morpholin-4-ylmethyl)biphenyl-3-yl]-2,4-dioxo-1,4-dihydropyrido[2,3-d]pyrimidin-3(2H)-yl]cyclohexyl}-1-hydroxycyclopropanecarboxamide], the IC50 is 0.398 nM.

Consider `CN(C)Cc1ccc(-c2cccc(-n3c(=O)n([C@H]4CC[C@@H](N)CC4)c(=O)c4cc(F)cnc43)c2)cc1` [Example 49, 3-(cis-4-aminocyclohexyl)-1-{4′-[(dimethylamino)methyl]biphenyl-3-yl}-6-fluoropyrido[2,3-d]pyrimidine-2,4(1H,3H)-dione], for which the IC50 was 12.6 nM.

As for `O=C(N[C@H]1CC[C@@H](n2c(=O)c3cc(F)cnc3n(-c3cccc(-c4ccc(CCN5CCOCC5)cc4)c3)c2=O)CC1)c1cn2cc(F)ccc2n1` [Example 50, 6-fluoro-N-{cis-4-[6-fluoro-1-[4′-(2-morpholin-4-ylethyl)biphenyl-3-yl]-2,4-dioxo-1,4-dihydropyrido[2,3-d]pyrimidin-3(2H)-yl]cyclohexyl}imidazo[1,2-c]pyridine-2-carboxamide], the IC50 is 0.00794 nM.

With `CC(C)(C)OC(=O)N1CCN(Cc2ccc(-c3cccc(-n4c(=O)n([C@H]5CC[C@@H](NC(=O)c6cn7cc(F)ccc7n6)CC5)c(=O)c5cc(F)cnc54)c3)cc2)CC1` [Example 51], the IC50 was 0.0398 nM.

On to `Cc1ccccc1-c1cccc(-n2c(=O)n([C@H]3CC[C@@H](N)CC3)c(=O)c3cc(F)cnc32)c1` [Example 52, 3-(cis-4-aminocyclohexyl)-6-fluoro-1-(2′-methylbiphenyl-3-yl)pyrido[2,3-d]pyrimidine-2,4(1H,3H)-dione], for which the IC50 was 2.51 nM.

Take `CN(C)C1(C(=O)N[C@H]2CC[C@@H](n3c(=O)c4cc(F)cnc4n(-c4cccc(-c5ccccc5)c4)c3=O)CC2)CC1` [Example 53, N-[cis-4-(1-biphenyl-3-yl-6-fluoro-2,4-dioxo-1,4-dihydropyrido[2,3-d]pyrimidin-3(2H)-yl)cyclohexyl]-1-(dimethylamino)cyclopropanecarboxamide]: the IC50 was 0.0158 nM.

Turning to `O=C(N[C@H]1CC[C@@H](n2c(=O)c3cc(F)cnc3n(-c3cccc(-c4ccc(CN5CCNCC5)cc4)c3)c2=O)CC1)c1cn2cc(F)ccc2n1` [Example 54, 6-fluoro-N-{cis-4-[6-fluoro-2,4-dioxo-1-[4′-(piperazin-1-ylmethyl)biphenyl-3-yl]-1,4-dihydropyrido[2,3-d]pyrimidin-3(2H)-yl]cyclohexyl}imidazo[1,2-a]pyridine-2-carboxamide], the IC50 was 0.0158 nM.

Turning to `O=C(N[C@H]1CC[C@@H](n2c(=O)c3cc(F)cnc3n(-c3cccc(-c4ccccn4)c3)c2=O)CC1)c1cn2cc(F)ccc2n1` [Example 55, 6-fluoro-N-{cis-4-[6-fluoro-2,4-dioxo-1-(3-pyridin-2-ylphenyl)-1,4-dihydropyrido[2,3-d]pyrimidin-3(2H)-yl]cyclohexyl}imidazo[1,2-a]pyridine-2-carboxamide], the IC50 was 0.1 nM.

For the molecule `O=C(N[C@H]1CC[C@@H](n2c(=O)c3cc(F)cnc3n(-c3cccc(-c4ccc(CN5CC[C@@H](O)C5)cc4)c3)c2=O)CC1)c1cn2cc(F)ccc2n1` [Example 56, 6-fluoro-N-{cis-4-[6-fluoro-1-(4′-{[(3R)-3-hydroxypyrrolidin-1-yl]methyl}biphenyl-3-yl)-2,4-dioxo-1,4-dihydropyrido[2,3-d]pyrimidin-3(2H)-yl]cyclohexyl}imidazo[1,2-a]pyridine-2-carboxamide], the IC50 is 0.0251 nM.

As for `CN(Cc1ccc(-c2cccc(-n3c(=O)n([C@H]4CC[C@@H](NC(=O)c5cn6cc(F)ccc6n5)CC4)c(=O)c4cc(F)cnc43)c2)cc1)C(C)(C)C` [Example 57, N-{cis-4-[1-(4′-{[tert-butyl(methyl)amino]methyl}biphenyl-3-yl)-6-fluoro-2,4-dioxo-1,4-dihydropyrido[2,3-d]pyrimidin-3(2H)-yl]cyclohexyl}-6-fluoroimidazo[1,2-a]pyridine-2-carboxamide], the IC50 is 0.1 nM.

Regarding `O=C(N[C@H]1CC[C@@H](n2c(=O)c3cc(F)cnc3n(-c3cccc(-c4ccc(OCCO)cc4)c3)c2=O)CC1)c1cn2cc(F)ccc2n1` [Example 58, 6-fluoro-N-{cis-4-[6-fluoro-1-[4′-(2-hydroxyethoxy)biphenyl-3-yl]-2,4-dioxo-1,4-dihydropyrido[2,3-d]pyrimidin-3(2H)-yl]cyclohexyl}imidazo[1,2-a]pyridine-2-carboxamide], the IC50 is 0.0158 nM.

`C[C@H](CO)NCc1ccc(-c2cccc(-n3c(=O)n([C@H]4CC[C@@H](NC(=O)c5cn6cc(F)ccc6n5)CC4)c(=O)c4cc(F)cnc43)c2)cc1` [Example 59]: the IC50 is 0.158 nM.

As to `O=C(N[C@H]1CC[C@@H](n2c(=O)c3cc(F)cnc3n(-c3cccc(-c4ccccc4C(=O)O)c3)c2=O)CC1)c1cn2cc(F)ccc2n1` [Example 60, 3′-[6-fluoro-3-(cis-4-{[(6-fluoroimidazo[1,2-a]pyridin-2-yl)carbonyl]amino}cyclohexyl)-2,4-dioxo-3,4-dihydropyrido[2,3-d]pyrimidin-1(2H)-yl]biphenyl-2-carboxylic acid], the IC50 is 6.31 nM.

Turning to `CNC1CCN(Cc2ccc(-c3cccc(-n4c(=O)n([C@H]5CC[C@@H](NC(=O)c6cn7cc(F)ccc7n6)CC5)c(=O)c5cc(F)cnc54)c3)cc2)CC1` [Example 61, 6-fluoro-N-{cis-4-[6-fluoro-1-(4′-{[4-(methylamino)piperidin-1-yl]methyl}biphenyl-3-yl)-2,4-dioxo-1,4-dihydropyrido[2,3-d]pyrimidin-3(2H)-yl]cyclohexyl}imidazo[1,2-a]pyridine-2-carboxamide], the IC50 is 0.02 nM.

As to `CC(=O)N[C@H]1CC[C@@H](n2c(=O)c3cc(F)cnc3n(-c3cccc(-c4ccccc4CN4CCOCC4)c3)c2=O)CC1` [Example 62, N-{cis-4-[6-fluoro-1-[2′-(morpholin-4-ylmethyl)biphenyl-3-yl]-2,4-dioxo-1,4-dihydropyrido[2,3-d]pyrimidin-3(2H)-yl]cyclohexyl}acetamide], the IC50 was 0.316 nM.

As for `O=C(N[C@H]1CC[C@@H](n2c(=O)c3cc(F)cnc3n(-c3cccc(-c4ccccc4CN4CCOCC4)c3)c2=O)CC1)c1ccccc1O` [Example 63, N-{cis-4-[6-fluoro-1-[2′-(morpholin-4-ylmethyl)biphenyl-3-yl]-2,4-dioxo-1,4-dihydropyrido[2,3-d]pyrimidin-3(2H)-yl]cyclohexyl}-2-hydroxybenzamide], the IC50 was 0.0794 nM.

On to `CNCCNCc1ccc(-c2cccc(-n3c(=O)n([C@H]4CC[C@@H](NC(=O)c5cn6cc(F)ccc6n5)CC4)c(=O)c4cc(F)cnc43)c2)cc1` [Example 64, 6-fluoro-N-{cis-4-[6-fluoro-1-[4′-({[2-(methylamino)ethyl]amino}methyl)biphenyl-3-yl]-2,4-dioxo-1,4-dihydropyrido[2,3-a]pyrimidin-3(2H)-yl]cyclohexyl}imidazo[1,2-a]pyridine-2-carboxamide], for which the IC50 was 0.0794 nM.

With `CC(=O)N[C@H]1CC[C@@H](n2c(=O)c3cc(F)cnc3n(-c3cccc(-c4ccccc4)c3)c2=O)CC1` [Example 65, N-[cis-4-(1-biphenyl-3-yl-6-fluoro-2,4-dioxo-1,4-dihydropyrido[2,3-d]pyrimidin-3(2H)-yl)cyclohexyl]acetamide], the IC50 was 0.398 nM.

Take `CN(C)[C@H]1CC[C@@H](n2c(=O)c3cc(F)cnc3n(-c3cccc(-c4ccccc4)c3)c2=O)CC1` [Example 66, 1-biphenyl-3-yl-3-[cis-4-(dimethylamino)cyclohexyl]-6-fluoropyrido[2,3-d]pyrimidine-2,4(1H,3H)-dione]: the IC50 is 63.1 nM.

In the case of `NC1(C(=O)N[C@H]2CC[C@@H](n3c(=O)c4cc(F)cnc4n(-c4cccc(-c5ccccc5CN5CCOCC5)c4)c3=O)CC2)CCCC1` [Example 70, 1-amino-N-{cis-4-[6-fluoro-1-[2′-(morpholin-4-ylmethyl)biphenyl-3-yl]-2,4-dioxo-1,4-dihydropyrido[2,3-d]pyrimidin-3(2H)-yl]cyclohexyl}cyclopentanecarboxamide trifluoroacetate salt], the IC50 is 2 nM.

On to `CN1CCN(Cc2cc(O)ccc2-c2cccc(-n3c(=O)n([C@H]4CC[C@@H](NC(=O)c5cn6cc(F)ccc6n5)CC4)c(=O)c4cc(F)cnc43)c2)CC1` [Example 71, 6-fluoro-N-{cis-4-[6-fluoro-1-{4′-hydroxy-2′-[(4-methylpiperazin-1-yl)methyl]biphenyl-3-yl}-2,4-dioxo-1,4-dihydropyrido[2,3-d]pyrimidin-3(2H)-yl]cyclohexyl}imidazo[1,2-a]pyridine-2-carboxamide trifluoroacetate salt], for which the IC50 was 0.0794 nM.

Turning to `O=C(N[C@H]1CC[C@@H](n2c(=O)c3cc(F)cnc3n(-c3cccc(-c4ccc(O)cc4CN4CCNCC4)c3)c2=O)CC1)c1cn2cc(F)ccc2n1` [Example 72, 6-fluoro-N-{cis-4-[6-fluoro-1-[4′-hydroxy-2′-(piperazin-1-ylmethyl)biphenyl-3-yl]-2,4-dioxo-1,4-dihydropyrido[2,3-d]pyrimidin-3(2H)-yl]cyclohexyl}imidazo[1,2-a]pyridine-2-carboxamide trifluoroacetate salt], the IC50 was 0.0501 nM.
